Reference: ChEMBL document CHEMBL1139580, “Pyrrolo[1,2-a][1,4]benzodiazepine: a novel class of non-azole anti-dermatophyte anti-fungal agents” (Bioorg Med Chem Lett, 2005)
≈ marks a conversion by molar mass, not a printed value.

Tests used:
Format in all cases: functional
[1] = tested on: Candida parapsilosis; assay: Minimum inhibitory concentration against Candida B66126 parapsilosis by microdilution method; settings: Lodderomyces parapsilosis
[2] = tested on: Aspergillus fumigatus; assay: Minimum inhibitory concentration against Aspergillus fumigatus B42928 by microdilution method
[3] = tested on: Cryptococcus neoformans; assay: Minimum inhibitory concentration against Cryptococcus neoformans B66663 by microdilution method
[4] = Minimum inhibitory concentration against Trichophyton mentagrophytes B70554 by microdilution method; settings: Trichophyton benhamiae
[5] = Minimum inhibitory concentration against Sporothrix schenckii B64284 by microdilution method
[6] = Minimum inhibitory concentration against Trichophyton rubrum B68183 by microdilution method
[7] = Minimum inhibitory concentration against Microsporum canis B68128 by microdilution method

| Structure (SMILES) | MIC [1] | MIC [2] | MIC [3] | MIC [4] | MIC [5] | MIC [6] | MIC [7] |
| --- | --- | --- | --- | --- | --- | --- | --- |
| CCc1ccc(C2=NCc3ccccc3-n3cccc32)cc1 | 0.32 µM (≈ 0.0916 µg/mL) | 1 µM (≈ 0.286 µg/mL) | 100 µM (≈ 28.6 µg/mL) | 0.32 µM (≈ 0.0916 µg/mL) | 100 µM (≈ 28.6 µg/mL) | 0.065 µM (≈ 0.0186 µg/mL) | 0.32 µM (≈ 0.0916 µg/mL) |
| CCc1ccc(C2NCc3ccc(Cl)cc3-n3cccc32)cc1 (centres undefined) | 100 µM (≈ 32.3 µg/mL) | 100 µM (≈ 32.3 µg/mL) | 100 µM (≈ 32.3 µg/mL) | 1 µM (≈ 0.323 µg/mL) | 100 µM (≈ 32.3 µg/mL) | 0.1 µM (≈ 0.0323 µg/mL) | 1 µM (≈ 0.323 µg/mL) |
| CCc1ccc([C@@H]2NCc3c(Cl)cccc3-n3cccc32)cc1 | 100 µM (≈ 32.3 µg/mL) | 55 µM (≈ 17.8 µg/mL) | 100 µM (≈ 32.3 µg/mL) | 1 µM (≈ 0.323 µg/mL) | 100 µM (≈ 32.3 µg/mL) | 0.32 µM (≈ 0.103 µg/mL) | 0.32 µM (≈ 0.103 µg/mL) |
| Clc1cccc2c1CNC(c1ccc(Br)cc1)c1cccn1-2 (centres undefined) | 100 µM (≈ 37.4 µg/mL) | 10 µM (≈ 3.74 µg/mL) | 100 µM (≈ 37.4 µg/mL) | 0.21 µM (≈ 0.0785 µg/mL) | 100 µM (≈ 37.4 µg/mL) | 0.21 µM (≈ 0.0785 µg/mL) | 0.32 µM (≈ 0.12 µg/mL) |
| CCc1ccc(C2NCc3c(SC)cccc3-n3cccc32)cc1 (centres undefined) | 100 µM (≈ 33.4 µg/mL) | 100 µM (≈ 33.4 µg/mL) | 100 µM (≈ 33.4 µg/mL) | 3.2 µM (≈ 1.07 µg/mL) | 100 µM (≈ 33.4 µg/mL) | 0.32 µM (≈ 0.107 µg/mL) | 3.2 µM (≈ 1.07 µg/mL) |
| CCCc1ccc(C2NCc3c(Cl)cccc3-n3cccc32)cc1 (centres undefined) | 6.6 µM (≈ 2.22 µg/mL) | 100 µM (≈ 33.7 µg/mL) | 100 µM (≈ 33.7 µg/mL) | 0.66 µM (≈ 0.222 µg/mL) | 100 µM (≈ 33.7 µg/mL) | 0.32 µM (≈ 0.108 µg/mL) | 0.66 µM (≈ 0.222 µg/mL) |
| CCc1ccc(C2NCc3cc(Cl)ccc3-n3cccc32)cc1 (centres undefined) | 100 µM (≈ 32.3 µg/mL) | 100 µM (≈ 32.3 µg/mL) | 100 µM (≈ 32.3 µg/mL) | 51.6 µM (≈ 16.7 µg/mL) | 100 | 3.2 µM (≈ 1.03 µg/mL) | 100 µM (≈ 32.3 µg/mL) |
| CCc1ccc(C2NCc3ccccc3-n3cccc32)cc1 (centres undefined) | 100 µM (≈ 28.8 µg/mL) | 1 µM (≈ 0.288 µg/mL) | 100 µM (≈ 28.8 µg/mL) | 3.2 µM (≈ 0.923 µg/mL) | 100 µM (≈ 28.8 µg/mL) | 1 µM (≈ 0.288 µg/mL) | 100 µM (≈ 28.8 µg/mL) |
| CCc1ccc(C2=NCc3c(Cl)cccc3-n3cccc32)cc1 | 0.32 µM (≈ 0.103 µg/mL) | 0.32 µM (≈ 0.103 µg/mL) | 100 µM (≈ 32.1 µg/mL) | 0.03 µM (≈ 0.00962 µg/mL) | 100 µM (≈ 32.1 µg/mL) | 0.01 µM (≈ 0.00321 µg/mL) | 0.03 µM (≈ 0.00962 µg/mL) |
| CCc1cccc(C2NCc3c(Cl)cccc3-n3cccc32)c1 (centres undefined) | 10 µM (≈ 3.23 µg/mL) | 10 µM (≈ 3.23 µg/mL) | 100 µM (≈ 32.3 µg/mL) | 1 µM (≈ 0.323 µg/mL) | 100 µM (≈ 32.3 µg/mL) | 0.1 µM (≈ 0.0323 µg/mL) | 1 µM (≈ 0.323 µg/mL) |
| Clc1ccc(C2NCc3c(Cl)cccc3-n3cccc32)cc1 (centres undefined) | 100 µM (≈ 32.9 µg/mL) | 51.6 µM (≈ 17 µg/mL) | 100 µM (≈ 32.9 µg/mL) | 0.66 µM (≈ 0.217 µg/mL) | 100 µM (≈ 32.9 µg/mL) | 0.32 µM (≈ 0.105 µg/mL) | 0.66 µM (≈ 0.217 µg/mL) |
| CN(C/C=C/C#CC(C)(C)C)Cc1cccc2ccccc12 [TERBINAFINE] | 0.32 µM (≈ 0.0933 µg/mL) | 0.32 µM (≈ 0.0933 µg/mL) | 1 µM (≈ 0.291 µg/mL) | 0.01 µM (≈ 0.00291 µg/mL) | 0.32 µM (≈ 0.0933 µg/mL) | 0.003 µM (≈ 0.000874 µg/mL) | 0.03 µM (≈ 0.00874 µg/mL) |
